Legend:
Type in all cases: in vivo, guinea pigs
[1] = system: bronchospasms elicited by 5-hydroxytryptamine; test: Bronchodilator activity against 5-hydroxytryptamine-induced bronchospasm (Konzett procedure); details: guinea pig; 5-hydroxytryptamine spasmogen; three logarithmic cumulative intravenous doses
Description: (§1) The compounds of this invention are useful as bronchodilators for the treatment of asthma and chronic bronchitis. Bronchodilator activity is determined in guinea pigs against bronchospasms elicited by intravenous injections of 5-hydroxytryptamine, histamine or acetylcholine by the Konzett procedure. [See J. Lulling, P. Lievens, F. El Sayed and J. Prignot, Arzneimittel-Forschung, 18, 955 (1968).]
(§2) In Table which follows bronchodilator activity for representative compounds of this invention against one or more of three spasmogenic agents is expressed as an ED50 determined from the results obtained with three logarithmic cummulative intravenous doses. In this assay, these compounds of this invention provide an effect of longer duration than does natural 1-PGE1 or 1-PGE2.

[2] = system: bronchospasms elicited by histamine; test: Bronchodilator activity against histamine-induced bronchospasm (Konzett procedure); details: guinea pig; histamine spasmogen; three logarithmic cumulative intravenous doses
Description: as §1, §2

[3] = system: bronchospasms elicited by acetylcholine; test: Bronchodilator activity against acetylcholine-induced bronchospasm (Konzett procedure); details: guinea pig; acetylcholine spasmogen; three logarithmic cumulative intravenous doses
Description: as §1, §2

SMILES	ED50 5HT [1]	ED50 HIST. [2]	ED50 ACH [3]
CCCCC(C)(O)C/C=C/C1C(O)CC(=O)C1/C=C\CCCCC(=O)C(=O)OCC (stereo not drawn) [d1-1,9-dioxo-1-carbethoxy-11α,16-dihydroxy-16-methyl-6-cis-13-trans-prostadiene]	9510 Mg/kg × 10^-6	9310 Mg/kg × 10^-6	5920 Mg/kg × 10^-6
CCCCCC(C)(O)/C=C/C1C(O)CC(=O)C1CCCCCCC(=O)C(=O)OCC (stereo not drawn) [d1-1,9-dioxo-1-carbethoxy-11α,15-dihydroxy-15-methyl-13-trans-prostene]	4220 Mg/kg × 10^-6	6050 Mg/kg × 10^-6	> 3.2 Mg/kg × 10^-6

— US4254278A, “1-Descarboxy-1-ketoester (ketoacid)-prostaglandins” (American Cyanamid Company, priority 1979, dated 1981)
